Data on eleven compounds can be found in patent US20260055097A9, “NRF2 PROTEIN DEGRADERS” (Ganymede Oncology, Inc., priority 2022, published 2026).

Molecules are shown by their SMILES. Where two headings read alike, the source gives them in different places.

What all share (type): cell-based
The subject of one experiment is LK-2. Description: Cancer cell viability, LK-2 (CellTiter-Glo). The settings on record: Homo sapiens, LK-2, 72 h, LK-2 cells, 3 days, read-out: Cellular IC50 (μM) LK-2. As for the experimental part: (§1) Representative Compounds of the Disclosure were tested in A549 (Vendor: ATCC; Cat #CCL-185; Description: lung, carcinoma) and/or LK-2 (Vendor: Riken; Cat #RCB1970; Description: lung, squamous cell carcinoma) cellular viability assays according to the following general protocol. • 1. Observed the cells under microscope. • 2. Aspirated the media and added 5 mL trypsin and incubate for 3 mins. • 3. Added 10 mL fresh media and harvested all the cells in to 15 mL tubes. • 4. Centrifuged the cells at 1000 rpm for 5 mins. • 5. Re-suspended the cells with 11 mL media and took 1 mL to determine the cell number and viability. • 6. Prepared cells suspension at 20 K/mL (A549) or 35 K/mL (LK-2) • 7. Seeded the cells into 96-well plate and incubated for overnight. • 8. Added compounds into each well with a HPD300 machine (nine three-fold dilutions typically starting at 30 µM final concentration) and incubated for 3 days. • 9. After 3 days, took out the plates from the incubator and observed the cells under microscope. • 10. Passed a film at the bottom of the plates. • 11. Equilibrated the plate and its contents at room temperature for approximately 30 minutes. • 12. Thawed the CellTiter-Glo® Buffer and equilibrated to room temperature prior to use. • 13. Equilibrated the lyophilized CellTiter-Glo® Substrate to room temperature prior to use. • 14. Transferred 100 ml of CellTiter-Glo® Buffer into the amber bottle containing CellTiter-Glo® Substrate to reconstituted the lyophilized enzyme/substrate mixture. • 15. Mixed by gently vortexing, swirling or inverting the contents to obtain a homogeneous solution. • 16. Added 100 μL CellTiter-Glo® Reagent into each well • 17. Mixed contents for 15 minutes on an orbital shaker to induce cell lysis. • 18. Recorded luminescence with EnSpire machine. • 19. Passed the raw data into the file and analyzed the data with XLfit software.

Another experiment addresses T1, Nrf2 (Homo sapiens, UniProt Q16236).
T1 sequence (Q16236 1-605): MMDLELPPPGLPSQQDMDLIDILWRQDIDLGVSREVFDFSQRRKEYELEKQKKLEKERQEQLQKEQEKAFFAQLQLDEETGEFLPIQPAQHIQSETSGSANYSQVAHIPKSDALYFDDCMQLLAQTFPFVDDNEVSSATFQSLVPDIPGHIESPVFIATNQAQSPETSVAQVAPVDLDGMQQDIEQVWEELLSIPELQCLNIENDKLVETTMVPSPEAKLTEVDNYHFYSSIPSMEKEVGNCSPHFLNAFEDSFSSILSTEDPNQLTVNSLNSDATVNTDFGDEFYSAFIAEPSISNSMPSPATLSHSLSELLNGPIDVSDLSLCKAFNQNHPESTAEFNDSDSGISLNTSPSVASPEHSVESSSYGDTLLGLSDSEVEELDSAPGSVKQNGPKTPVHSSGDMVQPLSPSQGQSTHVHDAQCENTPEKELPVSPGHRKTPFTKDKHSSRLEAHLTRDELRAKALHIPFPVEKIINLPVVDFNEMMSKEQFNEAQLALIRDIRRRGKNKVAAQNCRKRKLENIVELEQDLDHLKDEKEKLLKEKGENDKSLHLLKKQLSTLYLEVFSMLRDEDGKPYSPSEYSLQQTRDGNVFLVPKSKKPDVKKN
Nature of the experiment: Nrf2 degradation in A549 HiBiT-Nrf2 cells, Nano-Glo HiBiT lytic detection (HiBiT readout). Set-up: host or cells: A549 HiBiT-Nrf2 cells (engineered line bought from Promega). As for the experimental part: A549 HiBiT-Nrf2 cells (Promega, Cat. No. CS3023219) were seeded into 384-well plates at cell density of 5,000 cells/well in 40 μL of cell culture medium (Ham's F-12 Nutrient Mix supplemented with 10% FBS and 1% antibiotic-antimycotic).
The next day, cells were treated with representative Compounds of the Disclosure and incubated for 6 h and 20 h at 37° C., 5% CO2. Staurosporine was used as a control.
At the end of incubation Nrf2 degradation (HiBiT readout) and cell viability (CellTiter-Glo readout) were determined. For HiBiT readout, Nano-Glo HiBiT Reagent mix (Promega, Cat. No. N3050) was added to wells, plates were incubated 2 min on an orbital shaker and incubated at room temperature in the dark for additional 30 minutes. At the end of incubation luminescence was measured using ultrasensitive luminescence mode (Envision, Perkin Elmer).

A further experiment has as its system A549. Description: Cancer cell viability, A549 (CellTiter-Glo). As to conditions: Homo sapiens, 72 h, A549 cells, 3 days, read-out: Cellular IC50 (μM) A549. As for the experimental part: as §1, with “Added compounds into each well with a HPD300 machine (nine three-fold dilutions typically starting at 30 µM final concentration) and incubated for 3 days. • 9.” left out

Where [1] appears, read: 6 h, read-out: DC50 (nM) at 6 h.
The mark [2] stands for this setting: 20 h, read-out: DC50 (nM) at 20 h.

On to `Cc1ccccc1C(=O)N1CCc2cc(-c3nc(NC(=O)Cc4cccc(OCCOCCOc5ccc6c(c5)C(=O)N(C5CCC(=O)NC5=O)C6=O)c4)sc3C)ccc21` (stereo not shown) [Cpd. No. 18, 2-(3-(2-(2-((2-(2,6-dioxopiperidin-3-yl)-1,3-dioxoisoindolin-5-yl)oxy)ethoxy)ethoxy)phenyl)-N-(5-methyl-4-(1-(2-methylbenzoyl)indolin-5-yl)thiazol-2-yl)acetamide], for which the half-inhibitory concentration (IC50) was 0.04 µM in the experiment with LK-2 and 0.1 µM in the experiment with A549. Further, the DC50 on Nrf2 (setting [1]) was 300 to 3000 nM; on Nrf2 (setting [2]), greater than 3000 nM.
As to `Cc1ccccc1C(=O)N1CCc2cc(-c3nc(NC(=O)Cc4cccc(OCCOCCNc5ccc6c(c5)C(=O)N(C5CCC(=O)NC5=O)C6=O)c4)sc3C)ccc21` (stereo not shown) [Cpd. No. 20, 2-(3-(2-(2-((2-(2,6-dioxopiperidin-3-yl)-1,3-dioxoisoindolin-5-yl)amino)ethoxy)ethoxy)phenyl)-N-(5-methyl-4-(1-(2-methylbenzoyl)indolin-5-yl)thiazol-2-yl)acetamide], the IC50 with LK-2 came to 0.06 µM; in the experiment on A549, 0.3 µM. Moreover, the DC50 at Nrf2 (setting [1]) and on Nrf2 (setting [2]) was 300 to 3000 nM in each case.
As to `Cc1ccccc1C(=O)N1CCc2cc(-c3nc(NC(=O)Cc4cccc(OCCOCCOCCNc5ccc6c(c5)C(=O)N(C5CCC(=O)NC5=O)C6=O)c4)sc3C)ccc21` (stereo not shown) [Cpd. No. 21, 2-(3-(2-(2-(2-((2-(2,6-dioxopiperidin-3-yl)-1,3-dioxoisoindolin-5-yl)amino)ethoxy)ethoxy)ethoxy)phenyl)-N-(5-methyl-4-(1-(2-methylbenzoyl)indolin-5-yl)thiazol-2-yl)acetamide], the IC50 in the experiment with LK-2 and with A549 was greater than 30 µM each time.
Take `Cc1sc(NC(=O)Cc2cccc(OCCOCCNc3ccc4c(c3)C(=O)N(C3CCC(=O)NC3=O)C4=O)c2)nc1-c1ccc2c(c1)CCN2C(=O)C1CC1` (stereo not shown) [Cpd. No. 22, N-(4-(1-(cyclopropanecarbonyl)indolin-5-yl)-5-methylthiazol-2-yl)-2-(3-(2-(2-((2-(2,6-dioxopiperidin-3-yl)-1,3-dioxoisoindolin-5-yl)amino)ethoxy)ethoxy)phenyl) acetamide]: the IC50 was determined as 0.06 µM in the experiment on LK-2 and 0.3 µM with A549.
Taken in the same sequence, the figures for `Cc1sc(NC(=O)Cc2cccc(OCCOCCNc3ccc4c(c3)C(=O)N(C3CCC(=O)NC3=O)C4=O)c2)nc1-c1ccc2c(c1)CCN2C(=O)c1cncn1C` (stereo not shown) [Cpd. No. 23, 2-(3-(2-(2-((2-(2,6-dioxopiperidin-3-yl)-1,3-dioxoisoindolin-5-yl)amino)ethoxy)ethoxy)phenyl)-N-(5-methyl-4-(1-(1-methyl-1H-imidazole-5-carbonyl)indolin-5-yl)thiazol-2-yl)acetamide] were 0.02 µM and 0.09 µM.
Taken in the same sequence, the figures for `Cc1ccccc1C(=O)N1CCc2cc(-c3nc(NC(=O)Cc4cccc(OCCCCN5CCN(c6ccc7c(c6)C(=O)N(C6CCC(=O)NC6=O)C7=O)CC5)c4)sc3C)ccc21` (stereo not shown) [Cpd. No. 26, 2-(3-(4-(4-(2-(2,6-dioxopiperidin-3-yl)-1,3-dioxoisoindolin-5-yl)piperazin-1-yl)butoxy)phenyl)-N-(5-methyl-4-(1-(2-methylbenzoyl)indolin-5-yl)thiazol-2-yl)acetamide] were 0.8 µM and greater than 30 µM.
With `Cc1sc(NC(=O)Cc2ccc(F)c(OCCOCCNc3ccc4c(c3)C(=O)N(C3CCC(=O)NC3=O)C4=O)c2)nc1-c1ccc2c(c1)CCN2C(=O)C1CC1` (stereo not shown) [Cpd. No. 27, N-(4-(1-(cyclopropanecarbonyl)indolin-5-yl)-5-methylthiazol-2-yl)-2-(3-(2-(2-((2-(2,6-dioxopiperidin-3-yl)-1,3-dioxoisoindolin-5-yl)amino)ethoxy)ethoxy)-4-fluorophenyl)acetamide], the values for the IC50 in the experiment with LK-2 and in the experiment on A549 were 0.03 µM and 0.08 µM, respectively. Further, the DC50 on Nrf2 (setting [1]) and at Nrf2 (setting [2]) was less than 300 nM each time.
Consider `Cc1ccccc1C(=O)N1CCc2cc(-c3nc(NC(=O)Cc4cccc(OCCCCN5CCN(c6cccc7c6C(=O)N(C6CCC(=O)NC6=O)C7=O)CC5)c4)sc3C)ccc21` (stereo not shown) [Cpd. No. 33, 2-(3-(4-(4-(2-(2,6-dioxopiperidin-3-yl)-1,3-dioxoisoindolin-4-yl)piperazin-1-yl)butoxy)phenyl)-N-(5-methyl-4-(1-(2-methylbenzoyl)indolin-5-yl)thiazol-2-yl)acetamide], for which the concentration for half-maximal inhibition (IC50) in the experiment on LK-2 and in the experiment with A549 was greater than 30 µM in each case.
Take `Cc1sc(C(=O)NCc2cccc(OCCOCCNc3ccc4c(c3)C(=O)N(C3CCC(=O)NC3=O)C4=O)c2)nc1-c1ccc2c(c1)CCN2C(=O)C1CC1` (stereo not shown) [Cpd. No. 38, 4-(1-(cyclopropanecarbonyl)indolin-5-yl)-N-(3-(2-(2-((2-(2,6-dioxopiperidin-3-yl)-1,3-dioxoisoindolin-5-yl)amino)ethoxy)ethoxy)benzyl)-5-methylthiazole-2-carboxamide]: the figures for the concentration for half-maximal inhibition (IC50) in the experiment on LK-2 and in the experiment on A549 were 0.04 µM and 0.2 µM, respectively.
On to `Cc1sc(C(=O)Nc2cccc(OCCOCCNc3ccc4c(c3)C(=O)N(C3CCC(=O)NC3=O)C4=O)c2)nc1-c1ccc2c(c1)CCN2C(=O)C1CC1` (stereo not shown) [Cpd. No. 39, 4-(1-(cyclopropanecarbonyl)indolin-5-yl)-N-(3-(2-(2-((2-(2,6-dioxopiperidin-3-yl)-1,3-dioxoisoindolin-5-yl)amino)ethoxy)ethoxy)phenyl)-5-methylthiazole-2-carboxamide], for which the IC50 in the experiment with LK-2 and in the experiment with A549 was greater than 30 µM each time.
As to `Cc1ccccc1C(=O)N1CCc2cc(-c3nc(NC(=O)Cc4cccc(OCCCN5CCN(c6ccc7c(c6)C(=O)N(C6CCC(=O)NC6=O)C7=O)CC5)c4)sc3C)ccc21` (stereo not shown) [compound 25, 2-(3-(3-(4-(2-(2,6-dioxopiperidin-3-yl)-1,3-dioxoisoindolin-5-yl)piperazin-1-yl)propoxy)phenyl)-N-(5-methyl-4-(1-(2-methylbenzoyl)indolin-5-yl)thiazol-2-yl)acetamide], the IC50 with LK-2 and in the experiment on A549 was greater than 30 µM throughout.
